According to EPA's ToxValDB 9.5 (doi:10.2903/j.efsa.2005.45r):

Columns and labels:
Daphnia magna = conditions: chronic/long-term; duration: 21 days; reproduction
Canidae = conditions: subchronic; duration: 90 days; oral; Dog Other; body weight
Colinus virginianus = conditions: oral
Tagia sp. = conditions: acute; mortality
Apis mellifera = conditions: acute; duration: 48 hours; oral; unspecified; mortality
Rattus norvegicus = conditions: for NOAEL: chronic
Aphidius rhopalosiphi = conditions: acute; duration: 7 days; mortality
Chrysoperla externa = conditions: not reported; mortality
[1] = short-term, oral, feed, mortality

In the case of `CCS(=O)(=O)c1cccnc1S(=O)(=O)NC(=O)Nc1nc(OC)cc(OC)n1` [Rimsulfuron], the NOEC (Daphnia magna) is reported as 1 mg/L, the NOAEL (Canidae) is reported as 9.63 mg/kg-day and the LC50 (Colinus virginianus; acute, diet, mortality) is reported as > 5620 mg/kg. The LD50 (Colinus virginianus; acute, mortality) was > 2250 mg/kg, the NOEC (Colinus virginianus; short-term, diet) was 5620 mg/kg-day and the LC50 (Oncorhynchus mykiss; acute, duration: 96 hours, mortality) was > 390 µg/mL. For the same compound, the NOEC (Oncorhynchus mykiss; chronic/long-term, duration: 21 days, growth) was 125 mg/L, the LC50 (Tagia sp.) was > 1000 mg/kg and the LD50 (Apis mellifera) was > 100 µg/piece. The LD50 (Rattus norvegicus; acute, oral, mortality) was > 5000 mg/kg, the NOAEL (Rattus norvegicus) was 3000 mg/kg-day and the NOAEL (Rattus norvegicus; duration: 2 years, oral, body weight) was 11.8 mg/kg-day. For the same compound, the LEL (Aphidius rhopalosiphi) was < 37.5 g/ha, the LEL (Chrysoperla externa) was 37500 g/ha and the LD50 (Anas platyrhynchos; acute, oral, unspecified, mortality) was > 2250 mg/kg. The NOAEL (Anas platyrhynchos; reproductive) was 1250 mg/kg, the NOEC (Anas platyrhynchos; short-term, oral, feed) was 5620 mg/kg and the LC50 (Anas platyrhynchos; [1]) was > 5620 mg/kg. The LD50 (Anas platyrhynchos; [1]) was > 1610 mg/kg-day.
